Paper PMC6270209, “Synthesis, Antimycobacterial Activity and In Vitro Cytotoxicity of 5-Chloro-N-phenylpyrazine-2-carboxamides” (Molecules, 2013)
≈ marks a conversion by molar mass, not a printed value. Where two headings read alike, the source gives them in different places.

What was measured:
[1] = test system: M. tuberculosis H37Rv CNCTC My 331/88; experiment: In vitro antimycobacterial activity, microdilution panel method (MIC); type: cell-based, Mycobacterium tuberculosis; conditions: for MIC: Mycobacterium tuberculosis, H37RV
in vitro = conditions: human
M. avium CNCTC My 152/73 = experiment: In vitro antimycobacterial activity, microdilution panel method (MIC); type: cell-based, Mycobacterium avium; conditions: for MIC: Mycobacterium avium
[2] = test system: M. avium ssp. avium Chester CNCTC My 80/72; experiment: as above; type: cell-based, Mycobacterium avium; conditions: for MIC: Mycobacterium avium
HepG2 cells = conditions: for Cytotoxicity SI: SI calculated for M. tbc as IC50 (HepG2)/MIC (in μM) using the lower MIC values (Table 1); for IC50: read-out: Cytotoxicity IC50, HepG2 cells, 24 h incubation (Table 1)
[3] = test system: M. kansasii Hauduroy CNCTC My 235/80; experiment: In vitro antimycobacterial activity, microdilution panel method (MIC); type: cell-based, Mycobacterium kansasii; conditions: for MIC: Mycobacterium kansasii; for MIC / Antimycobacterial activity MIC, M. kansasii: M. kansasii Hauduroy CNCTC My 235/80
[4] = RP-HPLC, C18, MeOH 70% / H2O 30%, 30 °C
[5] = M. tuberculosis H37Rv, retest with extended dilution scale up to 0.39 µg/mL, read-out: Antimycobacterial activity MIC, M. tbc (confirmation retest, value in parentheses)
[6] = pH 5.6, M. tuberculosis H37Rv, primary test, dilution scale 100–[…], Šula's medium pH 5.6, read-out: Antimycobacterial activity MIC, M. tbc
[7] = M. tuberculosis H37Rv, primary test, dilution scale 100–[…], Šula's medium pH 5.6
[8] = M. tuberculosis H37Rv, retest with extended dilution scale up to 0.39 µg/mL

Row | SMILES | MIC [1, 5] [µg/mL] | MIC [1, 6] [µg/mL] | IC50 (in vitro) [µM] | MIC (M. avium CNCTC My 152/73) [µg/mL] | MIC [2] [µg/mL] | Cytotoxicity SI (HepG2 cells) | Activity against M. kansasii (in words) [3] | MIC [3] [µg/mL] | Antimycobacterial activity MIC, M. tbc [1, 7] [µg/mL] | Antimycobacterial activity MIC, M. avium (M. avium CNCTC My 152/73) [µg/mL] | Lipophilicity logk [4] | Antimycobacterial activity MIC, M. avium [2] [µg/mL] | Antimycobacterial activity MIC, M. kansasii [3] [µg/mL] | Antimycobacterial activity MIC, M. tbc (confirmation retest, value in parentheses) [1, 8] [µg/mL] | IC50 (HepG2 cells) [µM] | Antimycobacterial activity against M. tbc H37Rv (in words) [1]
1 | O=C(Nc1ccccc1O)c1cnc(Cl)cn1 [Compound 2, 5-Chloro-N-(2-hydroxyphenyl)pyrazine-2-carboxamide] | 0.78 (≈ 3.12 µM) | 3.13 (≈ 12.5 µM) | 30 | > 100 | > 100 | 2.39 |  |  |  |  |  |  |  |  |  | 
2 | O=C(Nc1cccc(O)c1)c1cnc(Cl)cn1 [Compound 3, 5-Chloro-N-(3-hydroxyphenyl)pyrazine-2-carboxamide] |  | 6.25 (≈ 25 µM) | 32.1 | 100 (≈ 401 µM) | > 100 | 1.28 | inactive | 50 (≈ 200 µM) |  |  |  |  |  |  |  | 
3 | Cc1ccc(C)c(NC(=O)c2cnc(Cl)cn2)c1 [Compound 6, 5-Chloro-N-(2,5-dimethylphenyl)pyrazine-2-carboxamide] | 1.56 (≈ 5.96 µM) | 1.56 (≈ 5.96 µM) | 11.7 | > 100 | > 100 | 1.96 |  | > 100 |  |  |  |  |  |  |  | 
4 | CCc1ccc(NC(=O)c2cnc(Cl)cn2)cc1 [Compound 7, 5-Chloro-N-(4-ethylphenyl)pyrazine-2-carboxamide] | 0.78 (≈ 2.98 µM) | 1.56 (≈ 5.96 µM) | 7.17 | > 100 | > 100 | 2.41 |  |  |  |  |  |  |  |  |  | 
5 | CC(C)c1ccc(NC(=O)c2cnc(Cl)cn2)cc1 [Compound 8, 5-Chloro-N-(4-isopropylphenyl)pyrazine-2-carboxamide] |  | 1.56 (≈ 5.66 µM) | 14.4 | > 100 | > 100 | 2.55 |  |  |  |  |  |  |  |  |  | 
6 | O=C(Nc1ccccc1F)c1cnc(Cl)cn1 [Compound 9] |  |  |  |  |  |  |  |  | 6.25 | >100 | 0.490 | >100 | 12.5 |  |  | 
7 | O=C(Nc1cccc(F)c1)c1cnc(Cl)cn1 [Compound 10, 5-Chloro-N-(3-fluorophenyl)pyrazine-2-carboxamide] |  | 6.25 (≈ 24.8 µM) |  | > 100 | > 100 |  |  | 12.5 (≈ 49.7 µM) |  |  |  |  |  |  |  | 
8 | O=C(Nc1ccc(F)cc1F)c1cnc(Cl)cn1 [Compound 11, 5-Chloro-N-(2,4-difluorophenyl)pyrazine-2-carboxamide] |  | 3.13 (≈ 11.6 µM) |  | > 50 | > 50 |  |  | 6.25 (≈ 23.2 µM) |  |  |  |  |  |  |  | 
9 | O=C(Nc1ccccc1Cl)c1cnc(Cl)cn1 [Compound 12] |  |  |  |  |  | 0.58 |  |  | 3.13 | >100 | 0.819 | >100 |  | 0.78 | 6.72 | 
10 | O=C(Nc1cccc(Cl)c1)c1cnc(Cl)cn1 [Compound 13] |  |  |  |  |  |  |  |  | 6.25 | 25 | 0.587 | 25 | 25 | 3.13 |  | 
11 | O=C(Nc1ccc(Cl)c(Cl)c1)c1cnc(Cl)cn1 [Compound 14, 5-Chloro-N-(3,4-dichlorophenyl)pyrazine-2-carboxamide] |  | 3.13 (≈ 10.3 µM) | 9.1 | > 100 | > 100 | 0.88 |  | > 100 |  |  |  |  |  |  |  | 
12 | O=C(Nc1cccc(Br)c1)c1cnc(Cl)cn1 [Compound 16, 5-Chloro-N-(3-bromophenyl)pyrazine-2-carboxamide] |  | 25 (≈ 80 µM) |  | > 100 | > 100 |  |  | 25 (≈ 80 µM) |  |  |  |  |  |  |  | 
13 | O=C(Nc1ccc(Br)cc1)c1cnc(Cl)cn1 [Compound 17] |  |  |  |  |  |  |  |  | 3.13 | >100 | 0.660 | >100 | 6.25 |  |  | 
14 | Cc1ccc(F)cc1NC(=O)c1cnc(Cl)cn1 [Compound 19, 5-Chloro-N-(5-fluoro-2-methylphenyl)pyrazine-2-carboxamide] | 6.25 (≈ 23.5 µM) | 3.13 (≈ 11.8 µM) |  | > 100 | > 100 |  |  | 25 (≈ 94.1 µM) |  |  |  |  |  |  |  | 
15 | Cc1ccc(Cl)c(NC(=O)c2cnc(Cl)cn2)c1 [Compound 20, 5-Chloro-N-(2-chloro-5-methylphenyl)pyrazine-2-carboxamide] |  | 1.56 (≈ 5.53 µM) | 15.8 | > 100 | > 100 | 2.86 |  | 25 (≈ 88.6 µM) |  |  |  |  |  |  |  | 
16 | O=C(Nc1ccc(O)c(Cl)c1)c1cnc(Cl)cn1 [Compound 22, 5-Chloro-N-(3-chloro-4-hydroxyphenyl)pyrazine-2-carboxamide] | 0.39 (≈ 1.37 µM) | 3.13 (≈ 11 µM) | 12.9 | 25 (≈ 88 µM) | 50 (≈ 176 µM) | 1.17 |  | > 100 |  |  |  |  |  |  |  | 
17 | O=C(Nc1cc([N+](=O)[O-])ccc1O)c1cnc(Cl)cn1 [Compound 23, 5-Chloro-N-(2-hydroxy-5-nitrophenyl)pyrazine-2-carboxamide] | 1.56 (≈ 5.29 µM) | 1.56 (≈ 5.29 µM) | 1.52 | 50 (≈ 170 µM) | 50 (≈ 170 µM) | 0.29 |  |  |  |  |  |  |  |  |  | 
18 | O=C(Nc1ccccc1[N+](=O)[O-])c1cnc(Cl)cn1 [Compound 24, 5-Chloro-N-(2-nitrophenyl)pyrazine-2-carboxamide] |  | 12.5 (≈ 44.9 µM) |  | > 100 | > 100 |  |  |  |  |  |  |  |  |  |  | 
19 | O=C(Nc1cccc([N+](=O)[O-])c1)c1cnc(Cl)cn1 [Compound 25] |  |  |  |  |  | 2.91 |  |  | 3.13 | >100 | 0.344 | >100 |  |  | 32.7 | 
20 | N#Cc1cccc(NC(=O)c2cnc(Cl)cn2)c1 [Compound 26, 5-Chloro-N-(3-cyanophenyl)pyrazine-2-carboxamide] |  | 25 (≈ 96.6 µM) |  | > 50 | > 50 |  |  | 3.13 (≈ 12.1 µM) |  |  |  |  | ≤ 6.25 |  |  | low activity
21 | N#Cc1ccc(NC(=O)c2cnc(Cl)cn2)cc1 [Compound 27, 5-Chloro-N-(4-cyanophenyl)pyrazine-2-carboxamide] |  | > 100 |  | > 100 | > 100 |  |  | > 100 |  |  |  |  |  |  |  | inactive
22 | O=C(Nc1cccc(C(F)(F)F)c1)c1cnc(Cl)cn1 [Compound 28, 5-Chloro-N-(3-(trifluoromethyl)phenyl)pyrazine-2-carboxamide] | 6.25 (≈ 20.7 µM) | 3.13 (≈ 10.4 µM) | 41.4 | > 100 | > 100 | 3.99 |  | 12.5 (≈ 41.4 µM) |  |  |  |  |  |  |  | 
23 | O=C(Nc1ccc(C(F)(F)F)cc1)c1cnc(Cl)cn1 [Compound 29, 5-Chloro-N-(4-(trifluoromethyl)phenyl)pyrazine-2-carboxamide] | 3.13 (≈ 10.4 µM) | 1.56 (≈ 5.17 µM) | 8.5 | > 100 | > 100 | 1.64 |  | 12.5 (≈ 41.4 µM) |  |  |  |  |  |  |  | 
